# Measurements: US12264142B2, “Heterocyclic compounds” (FLORATEK PHARMA SA, priority 2019, dated 2025)
# “Also recorded” adds a separate entry of the source.
# Experiments:
# [1] = system: KEGG pathways; test: KEGG pathway mapping of differentially-expressed genes; assay type: in vivo, C. elegans
# Description: To determine which among recognized aging-related pathways were most likely modulated by treatment with the SND303 compound, and to estimate their relative contributions, two approaches were undertaken. In one approach, the genes differentially expressed after treatment were mapped to pathways in the KEGG database, a curated knowledgebase of biological pathways. This placed the transcriptomic data within the context of well-characterized biological pathways, particularly several related to longevity.
# Several of these genes matched to the canonical longevity pathways as curated in KEGG (FIG. 5). […] At Day 10, however, many more pathways were represented among differentially-expressed genes and each individual pathway was more richly populated with differentially-expressed genes. The most prominent increase was in the expression of genes involved in Oxidative Phosphorylation, possibly indicating maintenance of mitochondrial function. In addition, several components of the canonical Longevity Regulating Pathway are represented. With closer examination of these the differential expression of the gene encoding Target of Rapamycin (TOR) is notable. When the TOR pathways itself was expanded, several more differentially-expressed genes were represented that were not explicitly indicated in the Longevity Regulating Pathway. Applying this process with the other pathways and modules linked to the Longevity Regulating Pathway, a coherent hypothetical pathway of action emerges.
# [2] = system: aging-related pathways; test: Pathway transcriptional profile score analysis; assay type: in vivo, C. elegans
# Description: In the second approach, the transcriptomic profile of worms treated with SND303 compound was compared with published transcriptomes in which specific aging-related pathways have been manipulated. In contrast with the first approach, this blindly scores how the data fits with published transcriptomic signatures of aging.
# Frequently cited and relevant studies analyzing the transcriptomic signatures of aging-related pathways in C. elegans were selected for this analysis. […] To generate a transcriptional profile score, the log fold change for each key gene in each pair of comparison (e.g. SND303 vs. negative control) is multiplied by a direction-specific factor and assigned a positive or negative value based on whether the change is in the same direction as reported in the literature. All the gene scores for a given pathway are summed up to produce one aggregated score per pathway for each pair of comparison.
# [3] = system: C. elegans; details: Ryu et al 2016; cited from earlier work
# [4] = system: N2 wild type strain of worms; test: C. elegans life span (survival) assay, manual scoring (SND301); assay type: in vivo
# Procedure: The survival assay was conducted in the presence of 50 μM SND301 with measurements of live, dead, and censored worms at time points every 2-3 days from the start of adulthood.
# Thioflavin T was used in the assay as a positive control [Gamir-Morralla A et al, 2019, “Effects of Thioflavin T and GSK-3 Inhibition on Lifespan and Motility in a Caenorhabditis elegans Model of Tauopathy”, J Alzheimers Dis Rep., 3(1): 47-57]. Vehicle 25% and 1% DMSO were used as controls and represent the vehicles in which compounds and bacteria or bacteria alone respectively were resuspended. The final DMSO concentration in the agar plates was 0.5% and 0.02% respectively.
# 5 mM DMSO stock solutions for each compound were prepared in high-grade DMSO. Stocks were protected from light and stored in glass vials at 21° C. in a temperature-controlled room (to avoid freeze/thaw of DMSO). A fresh stock was prepared at the start of each experiment and stored for <1 week.
# The lifespan assay was designed and performed according to published and validated methods with modifications for chemical treatment [Amrit F R G et al, 2014, “The C. elegans lifespan assay toolkit”, METHODS 68, 465-475; Leukanic, et. Al, “Manual Lifespan Assay Standard Operating Procedure”, Caenorhabditis Intervention Testing Program, https://figshare.com/articles/7_CITP_SOP_Manual_Lifespan_Assay/9738197/1]. Plates were seeded with compound dissolved in 25% DMSO and bacteria. The DMSO diffused through the agar to reach a final concentration of 0.5%. Synchronized day 1 adult worms were transferred to seeded plates containing compound and allowed to lay eggs for 2 hours (Day 0, “hatchoff”). The young adults were then removed, and the eggs were incubated at 20° C. until they had reached the young adult stage (day 3). 200 young adult worms per treatment were transferred to 8 fresh seeded 35 mm dishes with compound and 50 μM 5-Fluorodeoxyuridine to suppress progeny. […] Worms that were missing, stuck to the dish, burrowed, injured, or exploded were scored as censored and removed from the plate. To maintain chemical exposure at the experimental concentrations, worms were transferred every other scoring day to new seeded plates with compound.
# [5] = Day 10, against negative control
# [6] = end of the study, SND301 and Urolithin A 50 μM
smiles,measurement,setting,value
CC(C)NC(=O)Oc1ccc2c(c1)oc(=O)c1cc(OC(=O)NC(C)C)ccc12 [SND303],cel00980 Metabolism of xenobiotics by cytochrome P450: differentially-expressed genes,[1]; Day 3,gst-4; Glutathione S-transferase 4; also recorded: sodh-1; Alcohol dehydrogenase 1; also recorded: gst-5; Probable glutathione S-transferase 5
same,cel04212 Longevity regulating pathway: differentially-expressed genes,[1]; Day 3,gst-4; Glutathione S-transferase 4; also recorded: gst-5; Probable glutathione S-transferase 5; also recorded: ctl-2; Peroxisomal catalase 1
same,cel00190 Oxidative phosphorylation: differentially-expressed genes,[1]; Day 10,15 genes
same,cel03040 Spliceosome: differentially-expressed genes,[1]; Day 10,10 genes
same,cel03050 Proteasome: differentially-expressed genes,[1]; Day 10,11 genes
same,cel04010 MARK signaling pathway: differentially-expressed genes,[1]; Day 10,mtk-1; Protein kinase domain-containing protein; also recorded: fln-2; FiLamiN (actin binding protein) homolog; also recorded: nsy-1; Mitogen-activated protein; also recorded: mnk-1; MAP kinase-interacting; also recorded: pxf-1; Rap guanine nucleotide exchange factor; also recorded: ced-2; Cell death abnormality protein 2; also recorded: daf-2; Insulin-like receptor subunit beta
same,cel04120 Ubiquitin mediated proteolysis: differentially-expressed genes,[1]; Day 10,6 genes
same,cel04140 Autophagy: differentially-expressed genes,[1]; Day 10,let-363; Target of rapamycin homolog; also recorded: daf-15; Raptor_N domain-containing protein; also recorded: pek-1; Eukaryotic translation initiation; also recorded: atg-2; Autophagy-related protein 2; also recorded: cpl-1; Cathepsin L-like; also recorded: epg-7; ATG11 domain-containing protein; also recorded: ragc-1; RAs-related GTP binding; also recorded: unc-51; Serine/threonine-protein kinase unc-51
same,cel04141 Protein processing in endoplasmic reticulum: differentially-expressed genes,[1]; Day 10,pdi-2; Protein disulfide-isomerase 2; also recorded: cup-2; Derlin-1; also recorded: skr-2; SKp1 Related (ubiquitin ligase; also recorded: pek-1; Eukaryotic translation initiation; also recorded: uggt-1; UDP-Glucose Glycoprotein; also recorded: nsy-1; Mitogen-activated protein kinase; also recorded: rbx-1; RING-box protein 1; also recorded: Protein transport protein Sec61 subunit gamma
same,cel04150 mTOR signaling pathway: differentially-expressed genes,[1]; Day 10,let-363; Target of rapamycin homolog; also recorded: daf-15; Raptor_N domain-containing protein; also recorded: rict-1; RICTOR_V domain-containing protein; also recorded: T08A11.1; DEP domain-containing protein; also recorded: ragc-1; RAs-related GTP binding; also recorded: Y32H12A.8; WD_Repeats domain-containing; also recorded: daf-2; Insulin-like receptor subunit beta; also recorded: unc-51; Serine/threonine-protein kinase unc-51
same,cel04212 Longevity regulating pathway-worm: differentially-expressed genes,[1]; Day 10,"let-363; Target of rapamycin homolog; also recorded: sod-2; Superoxide dismutase [Mn] 1, mitochondrial; also recorded: gst-7; Probable glutathione S-transferase 7; also recorded: fat-6; Delta(9)-fatty-acid desaturase fat-6; also recorded: daf-2; insulin-like receptor subunit beta; also recorded: unc-51; Serine/threonine-protein kinase unc-51"
same,cel04361 Axon regeneration: differentially-expressed genes,[1]; Day 10,7 genes
same,"Transcriptional profile score, overall","[2]; Day 3, against negative control",little deviation from the control
same,"Transcriptional profile score, Oxidative stress response",[2]; [5],strong negative score
same,"Transcriptional profile score, overall",[2]; [5],greatest overall profile contrast with control
"O=c1oc2cc(O)ccc2c2ccc(O)cc12 [Urolithin A, reference compound]",Effect on lifespan,[3],extended lifespan
same,Death events,"[4]; Table 1A, at a certain point during the study, N2, SND301 and Urolithin A 50 μM",47
same,% Complete,"[4]; Table 1A, deaths attributed to aging from total worm population, at a certain point during the study, N2",25.7%
same,Death events,"[4]; Table 1B, end of the study, SND301 and Urolithin A 50 μM",178
same,Maximum life span,[4]; [6],35 days
same,Median lifespan,[4]; [6],21 days
